No end group written: not given here. *: point of attachment. Palmitoyl = CCCCCCCCCCCCCCCC(=O)*
T1: PAR-4 (Homo sapiens, UniProt Q96RI0)
T1 construct: host or cells: Chem-1 cells
T1 sequence (Q96RI0 18-385): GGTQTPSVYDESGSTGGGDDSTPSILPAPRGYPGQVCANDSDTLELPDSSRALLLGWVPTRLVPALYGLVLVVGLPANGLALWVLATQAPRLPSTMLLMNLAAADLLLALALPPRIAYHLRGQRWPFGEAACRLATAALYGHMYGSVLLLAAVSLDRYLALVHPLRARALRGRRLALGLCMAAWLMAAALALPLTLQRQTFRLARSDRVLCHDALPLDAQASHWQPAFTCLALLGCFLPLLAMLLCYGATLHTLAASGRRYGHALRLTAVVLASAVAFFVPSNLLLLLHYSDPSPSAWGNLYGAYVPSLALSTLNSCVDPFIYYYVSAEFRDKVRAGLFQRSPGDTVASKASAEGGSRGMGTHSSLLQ

B1: ADA1: Human adenosine deaminase from human erythrocytes; deaminates adenosine to inosine (protein, UniProt P00813 2-363, looked up)
Adenosine deaminase: AQTPAFDKPKVELHVHLDGSIKPETILYYGRRRGIALPANTAEGLLNVIGMDKPLTLPDFLAKFDYYMPAIAGCREAIKRIAYEFVEMKAKEGVVYVEVRYSPHLLANSKVEPIPWNQAEGDLTPDEVVALVGQGLQEGERDFGVKARSILCCMRHQPNWSPKVVELCKKYQQQTVVAIDLAGDETIPGSSLLPGHVQAYQEAVKSGIHRTVHAGEVGSAEVVKEAVDILKTERLGHGYHTLEDQALYNRLRQENMHFEICPWSSYLTGAWKPDTEHAVIRLKNDQANYSLNTDDPLIFKSTLDTDYQMTKRDMGFTEEEFKRLNINAAKSSFLPEDEKRELLDLLYKAYGMPPSASAGQNL

Experiments:
[1] = system: Human peripheral neutrophils; experiment: Spontaneous oxidative activation of neutrophils (DCFH-DA oxidation); format: cell-based; conditions: for rate of spontaneous oxidation of the DCFH-DA probe: 2.5 to 10 μg/ml of protein, followed over time, p <0.001 to <0.05; for oxidative metabolism (fluorescence emission of DCFH-DA probe): 1 h time point, all concentrations tested, P<0.05 compared to control
Source text: (§1) Human peripheral neutrophils were isolated from heparinized blood donated by healthy volunteers according to a protocol approved by the University of Illinois Institutional Review Board. The cells were isolated using a Histopaque™ gradient (Sigma) according to the manufacturer's instructions. Cell viability and identity was confirmed by trypan blue staining. Live cells and neutrophils represented at least 95% of isolated leukocytes.
(§2) The method for the measurement of oxidative activation of neutrophils was based on the ROS-dependent oxidation of DCFH-DA to DCF and was adapted from Ciapetti et al. DCFH-DA crosses the cell membrane and is hydrolyzed by nonspecific esterases to nonfluorescent DCFH. Its oxidation by ROS results in the generation of highly fluorescent DCF [30]. DCFH-DA is therefore a widely accepted probe for the measurement of an overall index of oxidative activity. DCFH-DA was purchased from Calbiochem (Madison, Wis.). The assays were run in clear bottom black 96-well plate. “Edge effects” (a higher fluorescence in edge wells) were avoided by using only center wells. Briefly, 50 μl of Dulbecco's Phosphate Buffered Saline (DPBS) containing DCFH-DA was added to each well with the final concentration of […]. S100 proteins or PKC inhibitors were diluted in the wells. Just before a baseline reading 100,000 neutrophils in 50 μl PBS were placed in each well. 96-well plates were incubated at 37° C. and 5% CO2 and were read at baseline (immediately after cell addition to the plates) and at indicated time points in a Spectra Max Gemini XS fluorescent plate reader. The excitation wavelength was 485 and the reading was done at 530 nm. Wells with no DCFH-DA were used to measure background fluorescence which was subtracted from each reading. Controls with no cells were also analyzed and display no increased fluorescence over time. All assays were conducted in triplicate or quadruplicate wells.
In order to avoid differences between donors, experimental procedures and plate to plate variation, all experimental conditions and statistical analysis were run within one plate inclusive of all positive and negative controls. Single sample t-tests were calculated to test the S100A8, S100A9 and combined proteins in comparison to the control wells with alpha set to ≦0.05 to determine statistical significance. Comparisons between the S100A8, S100A9 and combined proteins were calculated with two sample t-tests using SPSS (SPSS Inc., Chicago, Ill.) with alpha set to ≦0.05 to determine statistical relevance.

[2] = system: Human peripheral neutrophils; experiment: PMA induced activation of neutrophil oxidative metabolism (DCFH-DA oxidation); format: cell-based; conditions: for PMA activation of neutrophils: dose dependent
Source text: as §1, §2

[3] = system: Human peripheral neutrophils; experiment: PAR-4 activating peptide enhanced neutrophil oxidative metabolism (DCFH-DA oxidation); format: cell-based; conditions: P4pal-i1 with PAR-4 activating peptide (FIG. 6A)
Source text: as §1
The method for the measurement of oxidative activation of neutrophils was based on the ROS-dependent oxidation of DCFH-DA to DCF and was adapted from Ciapetti et al. DCFH-DA crosses the cell membrane and is hydrolyzed by nonspecific esterases to nonfluorescent DCFH. […] “Edge effects” (a higher fluorescence in edge wells) were avoided by using only center wells. […] Just before a baseline reading 100,000 neutrophils in 50 μl PBS were placed in each well. 96-well plates were incubated at 37° C. and 5% CO2 and were read at baseline (immediately after cell addition to the plates) and at indicated time points in a Spectra Max Gemini XS fluorescent plate reader. The excitation wavelength was 485 and the reading was done at 530 nm. Wells with no DCFH-DA were used to measure background fluorescence which was subtracted from each reading. Controls with no cells were also analyzed and display no increased fluorescence over time. […]

neutrophils = conditions: in-vitro; Sroussi et al., 2006, 2007; cited from earlier work
thrombin receptors = experiment: Calcium flux and thrombin-S100A8/A9 cross-desensitization in Chem-3 cells; format: cell-based; conditions: each alone
Experimental: (§3) Screening for S100A8 and S100A9 activity on thrombin receptors including thrombin receptor desensitization were conducted with calcium flux assays in Chem 3 and PAR-4 expressing Chem.-1 cells by Millipore's GPCRProfiler(R) Service (Millipore, St. Charles, Mo.; see website Millipore website on the internet).

PAR-4 = target: T1, PAR-4; experiment: Calcium flux and desensitization to thrombin in PAR-4 expressing Chem.-1 cells; format: cell-based; conditions: for calcium flux in PAR-4 expressing cells: data not shown; for desensitization of PAR-4 expressing cells to thrombin activation: previous treatment with different concentrations, then 10 nM thrombin
Experimental: as §3

[4] = system: excisional cutaneous wounds; experiment: Wound closure in the SKH-1 restraint stress model; format: in vivo, SKH-1 mice; conditions: restraint stressed (RST) mice; single local treatment immediately after wounding
Source text: This protocol was approved by the Committee on Animal Research at the University of Illinois at Chicago. Virus antibody-free, female SKH-1 mice, 5-6 weeks of age, were purchased from Charles River, Inc (Wilmington, Mass.). The animals were allowed to acclimate to the animal facility for at least one week prior to experimental procedures.
The restraint stress protocol is based on established procedures (Gajendrareddy et al., 2005; Mercado et al., 2002; Padgett et al., 1998). Restraint was initiated 3 days before wounding. Restraint stress (RST) in this model consists of confinement of mice within loosely fitting, well-ventilated 50 ml conical tubes for a period of 12-14 hours during their active nocturnal cycle. Animals were subjected to restraint for an additional five cycles on the day of wounding and for four days thereafter, then stress was discontinued.
For excisional wounds, mice were anesthetized with a single 0.25 ml intraperitoneal injection of Ketaset solution (Aveco, Fort Dodge, Iowa) at a concentration of 7.8 mg/ml, plus Rompum (Haver-Lockhart, Shawnee, Kans.) at 0.44 mg/ml. Each animal received two standardized circular cutaneous wounds with 3.5 mm punch (Miltex Instrument Company), placed just behind the shoulder blades with a biopsy punch.
For treatment of wounds, S100A8 and mutant ala^42S100A8 were produced, cleaved and purified from a GST fusion construct as previously described (Tugizov et al., 2005) (Sroussi et al., 2006). The endotoxin levels in the recombinant protein preparations were below 1 ng/μg of proteins as measured by the Limulus amoebocyte lysate assay (LAL) (Associates of Cape Cod, Falmouth, Mass.). Solutions of S100 proteins at a concentration of 1 μg/ml were used for those experiments. Introduction of S100A8 protein or control saline vehicle were conducted through local injection intradermally of 25 μl solution in the tissue surrounding the wounds with the help of Micro-Fine IV syringes 28G1/2 (Becton Dickinson, Franklin Lakes, N.J.). Careful wound manipulation ensured no direct disruption of the wound site. An additional 10 μl solution was applied directly to the wounds.
Measurement of Wound Sizes was done as follows. Beginning on the day of wounding (day 0), each animal's wounds were photographed daily until day 5 post-wounding. Photographs of the wound were obtained with a standard-sized dot placed next to the site. Digitized photographs were analyzed using photoplanimetry (Marucha et al., 1998). An investigator blinded to treatment group and day of photograph measured wound size. Wound size was expressed as the percentage of the wound area determined on every post-wounding day, compared with the original wound area.

[5] = system: Human peripheral neutrophils; experiment: LPS stimulated neutrophil oxidative metabolism (DCFH-DA oxidation); format: cell-based; conditions: for LPS stimulation of neutrophil oxidative activity: 2.5 to 10 μg/ml of protein, LPS 10 μg/ml
Source text: as §1, §2

[6] = 0.01 mU/ml ADA1, S100 proteins 10 to 2.5 μg/ml

Row | Molecule | rate of spontaneous oxidation of the DCFH-DA probe [1] | oxidative metabolism (fluorescence emission of DCFH-DA probe) [1] | neutrophil chemotaxis toward bacterial products (formylated peptides) (neutrophils) | calcium flux in Chem-3 cells (thrombin receptors) | calcium flux in PAR-4 expressing cells (PAR-4) | desensitization of PAR-4 expressing cells to thrombin activation (PAR-4) | PMA activation of neutrophils [2] | LPS stimulation of neutrophil oxidative activity [5] | other results
1 | CN(C)CCCn1cc(C2=C(c3c[nH]c4ccccc34)C(=O)NC2=O)c2ccccc21 [GFX, Bisindolylmaleimide I, reference compound] | – | – | – | – | – | – | – | – | spontaneous activation of neutrophils oxidative metabolism ([1]; 5 μM GFX): significantly inhibited both the PMA induced and the spontaneous activation of neutrophils oxidative metabolism; PMA induced activation of neutrophils oxidative metabolism ([2]; 5 μM GFX, 1 μM PMA): significantly inhibited both the PMA induced and the spontaneous activation of neutrophils oxidative metabolism
2 | C15H31CONH-ATGAPRLPST (Palmitoyl-ATGAPRLPST) [P4pal-i1, reference compound] | – | – | – | – | – | – | – | – | PAR-4 activating peptide enhancement of oxidative metabolism [3]: blocked the ability of the PAR-4 activating peptide to enhance oxidative metabolism; spontaneous oxidative metabolic activity ([1]; 2.5 μM P4pal-i1): spontaneous oxidative metabolic activity was reduced; effect on S100A8, S100A9 and calprotectin inhibition of spontaneous oxidative metabolic activity ([1]; P4pal-i1 with S100 proteins (FIG. 6B)): blocked the ability of S100A8, S100A9 and calprotectin (S100A8/A9 in combination) to inhibit the spontaneous oxidative metabolic activity of neutrophils
3 | S100A8: recombinant human S100A8 calcium binding protein, expressed in Escherichia coli as GST fusion, GST tag cleaved | reduced the rate at which spontaneous oxidation of the DCFH-DA probe occurred in a dose dependent manner | significantly inhibited oxidative metabolism at all concentrations tested | inhibit neutrophil chemotaxis toward bacterial products | trigger calcium flux in Chem-3 cells in a dose dependent manner | activated calcium flux in those cells | dose dependently desensitized PAR-4 expressing cells to thrombin activation | produced a dose dependent inhibition of PMA activation of neutrophils | strongly inhibited LPS stimulation of neutrophil oxidative activity | oxidative activation of neutrophils ([1]; 5, 2.5 and 1.25 μg/ml, p<0.05): inhibited the oxidative activation of neutrophils; oxidative activation of neutrophils, protein first boiled ([1]; same concentrations (5, 2.5, 1.25 μg/ml), protein boiled for 5 minutes): did not significantly affect the neutrophils; wound closure rate in stressed animals [4]: partial acceleration in wound closure rate in stressed animals
4 | S100A9: recombinant human S100A9 calcium binding protein, expressed in Escherichia coli as GST fusion, GST tag cleaved | reduced the rate at which spontaneous oxidation of the DCFH-DA probe occurred in a dose dependent manner | significantly inhibited oxidative metabolism at all concentrations tested | inhibit neutrophil chemotaxis toward bacterial products | trigger calcium flux in Chem-3 cells in a dose dependent manner | activated calcium flux in those cells | dose dependently desensitized PAR-4 expressing cells to thrombin activation | produced a dose dependent inhibition of PMA activation of neutrophils | strongly inhibited LPS stimulation of neutrophil oxidative activity | –
5 | B1 | – | – | – | – | – | – | – | – | effect on S100A8/S100A9 inhibition of spontaneous oxidative metabolism [1, 6]: partially or fully abrogated; effect on S100A8/S100A9 inhibition of LPS stimulated oxidative metabolism [5, 6]: partially or fully abrogated
